Read-outs that look alike come from different tables or passages of the source.
Biological target: T1, purified human IDO protein (Homo sapiens, UniProt P14902)
T1 construct: 2 extra amino acids (linker from the BglII cloning site of pQE70); made in house; host or cells: E. coli M15(pREP4) with plasmid pQE70-hIDO
Assay: Enzymatic IDO assay (kynurenine production, absorbance at 480 nm)
Type: biochemical
Details: values reported in ranges
Description: The inhibitors were initially diluted in DMSO at 100 mM and were diluted in potassium phosphate 50 mM, added to the reaction mixture at final concentrations raging from 1 mM to 5 nM and preincubated with the enzyme for 5 min at 25° C. The reaction was started by addition of L-tryptophan to 200 μM and incubated 15 min at 37° C. The reaction was stopped by addition of 0.5 vol of 30% trichloroacetic acid and incubated 30 min at 60° C. to hydrolyze N-formylkynurenine to kynurenine. The reaction was centrifuged at 3400 g for 5 min to remove precipitated protein and the supernatant was reacted with 2% (w/v) of p-dimethylaminobenzaldehyde in acetic acid. The reaction was incubated 10 min at 25° C. and read at 480 nm in a spectrophotometer. […] Nonlinear regressions and determination of the IC50 values were performed using the GraphPad Prism 4 software.

[1] = recombinant human IDO, read-out: hIDO IC50

T1 sequence (P14902 whole entry P110S/E119G): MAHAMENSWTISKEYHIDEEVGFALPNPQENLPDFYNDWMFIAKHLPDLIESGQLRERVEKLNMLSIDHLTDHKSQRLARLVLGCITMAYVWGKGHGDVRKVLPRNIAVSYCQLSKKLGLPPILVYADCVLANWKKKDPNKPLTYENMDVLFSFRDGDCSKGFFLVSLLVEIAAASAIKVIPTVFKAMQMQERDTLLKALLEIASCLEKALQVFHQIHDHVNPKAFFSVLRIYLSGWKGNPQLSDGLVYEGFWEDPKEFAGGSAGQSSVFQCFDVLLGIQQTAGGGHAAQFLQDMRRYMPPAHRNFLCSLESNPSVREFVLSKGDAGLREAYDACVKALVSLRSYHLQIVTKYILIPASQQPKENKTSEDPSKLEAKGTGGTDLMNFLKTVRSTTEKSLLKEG

Row | Compound | IC50 [1] [µM] | IC50 (hIDO IC50, recombinant human IDO) [µM]
1 | C=CCn1cncc1-c1ccccc1 [compound 1131, 1-allyl-5-phenyl-1H-imidazole] | > 100 | 
2 | O=C(Nc1ccc(CCOc2ccccc2-c2c[nH]cn2)cc1)OCc1ccccc1 [compound 1136, benzyl (4-(2-(2-(1H-imidazol-4-yl)phenoxy)ethyl)phenyl)carbamate] | 1 to 10 | 
3 | CC1Cn2cncc2-c2ccccc21 (stereo not drawn) [compound 1137, 6-methyl-5,6-dihydroimidazo[5,1-a]isoquino-line] | > 100 | 
4 | Oc1ccccc1-c1cnco1 [compound 1139, 2-(oxazol-5-yl)phenol] | 10 to 100 | 
5 | CC(C)(C)CC(=O)N1CCC(CCOc2ccccc2-c2c[nH]cn2)CC1 [compound 1143, 1-(4-(2-(2-(1H-imidazol-4-yl)phenoxy)ethyl)piperidin-1-yl)-3,3-dimethylbutan-1-one] | 10 to 100 | 
6 | O=C1NCCN1C(=O)Oc1ccc(Cl)cc1-c1c[nH]cn1 [compound 1147, 4-chloro-2-(1H-imidazol-4-yl)phenyl 2-oxoimidazolidine-1-carboxylate] |  | 1 to 10
7 | Oc1cccc(OCCc2ccc(Cl)cc2)c1-c1cnc[nH]1 [compound 1148, 3-(4-chlorophenethoxy)-2-(1H-imidazol-5-yl) phenol] | 1 to 10 | 
8 | CC(C)(C)COC(=O)N1CCC(CCOc2ccccc2-c2c[nH]cn2)CC1 [compound 1149, neopentyl 4-(2-(2-(1H-imidazol-4-yl)phenoxy)ethyl)piperidine-1-carboxylate] | 10 to 100 | 
9 | O=C(Nc1ccc(CCOc2ccccc2-c2c[nH]cn2)cc1)c1cccs1 [compound 1150, N-(4-(2-(2-(1H-imidazol-4-yl)phenoxy)ethyl)phenyl)thiophene-2-carboxamide] | 1 to 10 | 
10 | O=S(=O)(Cc1ccccc1)Nc1ccc(CCOc2ccccc2-c2c[nH]cn2)cc1 [compound 1151, N-(4-(2-(2-(1H-imidazol-4-yl)phenoxy)ethyl)phenyl)-1-phenylmethanesulfonamide] | 1 to 10 | 
11 | O=C(Nc1ccccc1)Nc1ccc(CCOc2ccccc2-c2cnc[nH]2)cc1 [compound 1152, 1-(4-(2-(2-(1H-imidazol-4-yl)phenoxy)ethyl)phenyl)-3-phenylurea] | < 1 | 
12 | O=C(Cc1cnccn1)Nc1ccc(CCOc2ccccc2-c2c[nH]cn2)cc1 [compound 1153, N-(4-(2-(2-(1H-imidazol-4-yl)phenoxy)ethyl)phenyl)-2-(pyrazin-2-yl)acetamide] | 10 to 100 | 
13 | O=C(Cc1cccs1)Nc1ccc(CCOc2ccccc2-c2c[nH]cn2)cc1 [compound 1154, N-(4-(2-(2-(1H-imidazol-4-yl)phenoxy)ethyl)phenyl)-2-(thiophen-2-yl)acetamide] | 1 to 10 | 
14 | O=C(Cc1cnccn1)Nc1ccc(CCOc2ccccc2-c2c[nH]cn2)cc1 [compound 1156, N-(4-(2-(2-(1H-imidazol-4-yl)phenoxy)ethyl)phenyl)-2-(pyrazin-2-yl)acetamide] | 1 to 10 | 
15 | CC(=O)Nc1ccc(CCOc2ccccc2-c2c[nH]cn2)c(Cl)c1 [compound 1159, N-(4-(2-(2-(1H-imidazol-4-yl)phenoxy)ethyl)-3-chlorophenyl)acetamide] | 1 to 10 | 
16 | Oc1cccc(OCCc2cccc(Cl)c2)c1-c1cnc[nH]1 [compound 1160, 3-(3-chlorophenethoxy)-2-(1H-imidazol-5-yl) phenol] | 1 to 10 | 
17 | O=C(c1cccs1)N1CCC(CCOc2ccccc2-c2c[nH]cn2)CC1 [compound 1165, (4-(2-(2-(1H-imidazol-4-yl)phenoxy)ethyl)piperidin-1-yl)(thiophen-2-yl)methanone] | 1 to 10 | 
18 | Oc1ccc(Cl)c(OCCC2CCCCC2)c1-c1cnc[nH]1 [compound 1172, 4-chloro-3-(2-cyclohexylethoxy)-2-(1H-imidazol-5-yl)phenol] | 1 to 10 | 
19 | O=C(Cc1cccs1)N1CCC(CCOc2ccccc2-c2c[nH]cn2)CC1 [compound 1176, 1-(4-(2-(2-(1H-imidazol-4-yl)phenoxy)ethyl)piperidin-1-yl)-2-(thiophen-2-yl)ethanone] | 1 to 10 | 
20 | Clc1cccc(-c2cnc[nH]2)c1OCCC1CCCCC1 [compound 1177, 5-(3-chloro-2-(2-cyclohexylethoxy)phenyl)-1H-imidazole] | 1 to 10 | 
21 | CN(C)c1ccc(CCOc2ccccc2-c2c[nH]cn2)cc1 [compound 1181, 4-(2-(2-(1H-imidazol-4-yl)phenoxy)ethyl)-N,N-dimethylaniline] | 10 to 100 | 
22 | Oc1cccc(OCCC2CC=CCC2)c1-c1cnc[nH]1 (stereo not drawn) [compound 1182, 3-(2-(cyclohex-3-en-1-yl)ethoxy)-2-(1H-imidazol-5-yl)phenol] | 1 to 10 | 
23 | O=C(Cc1ccccc1)N1CCC(CCOc2ccccc2-c2c[nH]cn2)CC1 [compound 1186, 1-(4-(2-(2-(1H-imidazol-4-yl)phenoxy)ethyl)piperidin-1-yl)-2-phenylethanone] | 1 to 10 | 

Row | Compound | IC50 [1] [µM] | IC50 (hIDO IC50, recombinant human IDO) [µM]
24 | C1=CCC(CCOc2ccccc2-c2c[nH]cn2)CC1 (stereo not drawn) [compound 1191, 4-(2-(2-(cyclohex-3-en-1-yl)ethoxy)phenyl)-1H-imidazole] | 1 to 10 | 
25 | O=C(Nc1ccc(CCOc2ccccc2-c2c[nH]cn2)cc1)Nc1ccccc1[N+](=O)[O-] [compound 1192, 1-(4-(2-(2-(1H-imidazol-4-yl)phenoxy)ethyl)phenyl)-3-(2-nitrophenyl)urea] | < 1 | 
26 | c1csc(CCOc2ccccc2-c2c[nH]cn2)c1 [compound 1198, 4-(2-(2-(thiophen-2-yl)ethoxy)phenyl)-1H-imidazole] | 10 to 100 | 
27 | O=C(CC1CCCO1)Nc1ccc(CCOc2ccccc2-c2c[nH]cn2)cc1 (stereo not drawn) [compound 1199, N-(4-(2-(2-(1H-imidazol-4-yl)phenoxy)ethyl)phenyl)-2-(tetrahydrofuran-2-yl)acetamide] | 1 to 10 | 
28 | c1csc(-c2ccc(CCOc3ccccc3-c3c[nH]cn3)cc2)c1 [compound 1200, 4-(2-(4-(thiophen-2-yl)phenethoxy)phenyl)-1H-imidazole] | 10 to 100 | 
29 | c1ccc(-c2c[nH]cn2)c(OCCc2ccc(-c3ccsc3)cc2)c1 [compound 1201, 4-(2-(4-(thiophen-3-yl)phenethoxy)phenyl)-1H-imidazole] | 10 to 100 | 
30 | c1ccc(-c2c[nH]cn2)c(OCCc2csc3ccccc23)c1 [compound 1202, 4-(2-(2-(benzo[b]thiophen-3-yl)ethoxy)phenyl)-1H-imidazole] | 10 to 100 | 
31 | c1ccc(-c2c[nH]cn2)c(OCCc2ccsc2)c1 [compound 1203, 4-(2-(2-(thiophen-3-yl)ethoxy)phenyl)-1H-imidazole] | 10 to 100 | 
32 | O=C(Nc1ccc(CCOc2ccccc2-c2c[nH]cn2)cc1)c1ccc[nH]c1=O [compound 1204, N-(4-(2-(2-(1H-imidazol-4-yl)phenoxy)ethyl)phenyl)-2-oxo-1,2-dihydropyridine-3-carboxamide] | 1 to 10 | 
33 | CC(=O)NCc1ccccc1-c1c[nH]cn1 [compound 1207, N-(2-(1H-imidazol-4-yl)benzyl)acetamide] | > 100 | 
34 | O=C(CC1CCOCC1)Nc1ccc(CCOc2ccccc2-c2c[nH]cn2)cc1 [compound 1211, N-(4-(2-(2-(1H-imidazol-4-yl)phenoxy)ethyl)phenyl)-2-(tetrahydro-2H-pyran-4-yl)acetamide] | 1 to 10 | 
35 | CN1CCN(CC(=O)Nc2ccc(CCOc3ccccc3-c3c[nH]cn3)cc2)CC1 [compound 1212, N-(4-(2-(2-(1H-imidazol-4-yl)phenoxy)ethyl)phenyl)-2-(4-methylpiperazin-1-yl)acetamide] | 10 to 100 | 
36 | c1ccc(-c2c[nH]cn2)c(OCCC2CCCO2)c1 (stereo not drawn) [compound 1213, 4-(2-(2-(tetrahydrofuran-2-yl)ethoxy)phenyl)-1H-imidazole] | 10 to 100 | 
37 | O=C(CN1CCOCC1)Nc1ccc(CCOc2ccccc2-c2c[nH]cn2)cc1 [compound 1214, N-(4-(2-(2-(1H-imidazol-4-yl)phenoxy)ethyl)phenyl)-2-morpholinoacetamide] | 1 to 10 | 
38 | NC1CCCCC1NC(=O)Nc1ccc(CCOc2ccccc2-c2c[nH]cn2)cc1 (stereo not drawn) [compound 1216, 1-(4-(2-(2-(1H-imidazol-4-yl)phenoxy)ethyl)phenyl)-3-(2-aminocyclohexyl)urea] | 1 to 10 | 
39 | O=C(Cn1ccnc1)Nc1ccc(CCOc2ccccc2-c2c[nH]cn2)cc1 [compound 1217, N-(4-(2-(2-(1H-imidazol-4-yl)phenoxy)ethyl)phenyl)-2-(1H-imidazol-1-yl)acetamide] | 1 to 10 | 
40 | Clc1ccc(CCOc2ccccc2-c2c[nH]cn2)cn1 [compound 1218, 5-(2-(2-(1H-imidazol-4-yl)phenoxy)ethyl)-2-chloropyridine] | 10 to 100 | 
41 | O=C(CN1CCCCCC1)Nc1ccc(CCOc2ccccc2-c2c[nH]cn2)cc1 [compound 1219, N-(4-(2-(2-(1H-imidazol-4-yl)phenoxy)ethyl)phenyl)-2-(azepan-1-yl)acetamide] | 10 to 100 | 
42 | Oc1cc(Cl)cc(-c2cnc[nH]2)c1O [compound 1221, 5-chloro-3-(1H-imidazol-5-yl)benzene-1,2-diol] | 1 to 10 | 
43 | c1ccc(Nc2nc3ccc(CCOc4ccccc4-c4c[nH]cn4)cc3o2)cc1 [compound 1222, 6-(2-(2-(1H-imidazol-4-yl)phenoxy)ethyl)-N-phenylbenzo[d]oxazol-2-amine] | 1 to 10 | 
44 | c1ccc(-c2c[nH]cn2)c(OCCc2ccc(N3CCCCC3)cc2)c1 [compound 1223, 1-(4-(2-(2-(1H-imidazol-4-yl)phenoxy)ethyl)phenyl)piperidine] | 10 to 100 | 
45 | O=C(Nc1ccccc1)Nc1ccc(CCOc2ccccc2-c2c[nH]cn2)cn1 [compound 1224, 1-(5-(2-(2-(1H-imidazol-4-yl)phenoxy)ethyl)pyridin-2-yl)-3-phenylurea] | 1 to 10 | 
